Assay results taken from PMC3436892, “Novel African Trypanocidal Agents: Membrane Rigidifying Peptides” (PLoS ONE, 2012).

Tests used:
[1] = test system: Bloodstream developmental forms of T. congolense; test: 2 h in vitro killing assay, T. congolense; assay type: cell-based, Trypanosoma congolense strain IL3000; details: 37°C, 1×10^7 cells/mL, HMI 9 with 20 % bovine serum, hemocytometer, at concentrations similar to BSF T. brucei (Fig. 1b)
Protocol: (§1) Light microscopy based trypanosome killing assays were performed as previously described in detail, [10], [21], [22]. Metacyclic Trypanosoma brucei brucei strain STIB247 were obtained from dissection of the salivary glands of infected tsetse flies. Newly hatched Glossina morsitans morsitans (24–48 h post eclosion) were fed two defibrinated horse blood meals containing 2×10^6 mL^-1 trypanosomes on two separate days. Flies were then maintained at 25°C in 75 % relative humidity and fed maintenance blood meals three times per week. Following day 20–30, flies were harvested and salivary glands were dissected out and placed into HMI 9 media containing 10 % fetal bovine serum for 30 minutes. Metacyclic cells were expelled into the media by the residual peristalsis of the salivary glands. Cells were collected via centrifugation and maintained in HMI 9 media with 20 % fetal bovine serum at 37°C in 5 % CO2 until use. Killing assays were conducted with 1×10^4 cells/mL in HMI 9 media containing 10 % fetal bovine serum. Live cells were scored via hemocytometer after 2 h incubation. Trypanosoma vivax strain ILRAD V34 and Trypanosoma congolense strain IL3000 were grown from stabilites in donor ICR mouse (Harlan, United Kingdom). […] Cells were incubated at 37°C for 2 h and live cells were scored visually via hemocytometer. […]

Live BSF T. b. brucei = test: Trypanosome motility scoring by DIC microscopy; assay type: cell-based, Trypanosoma brucei brucei; details: 40 µM SHP, 37°C, 1×10^7 cells/mL, HMI 9 with 10 % fetal bovine serum, DIC microscopy, at least duplicate (Fig. 2d)
Protocol: All images and videos were acquired with an Axio Observer Z1 equipped with an AxioCam MRm controlled by AxioVision 4.6 software. Videos were acquired with live cells at a density of 1×10^7 cells/mL in HMI 9 media with 10 % fetal bovine serum, incubated with 40 µM SHP at 37°C. Trypanosomes were visualized at magnification 63 × and videos were recorded with 100-ms acquisition times. The motility of BSF trypanosomes was scored directly or from video playback. Trypanosome motility was classified as normal, hyperactive or constricted as described previously. An example of a trypanosome scored as normal is shown in Movie S1. […] Data in figure 2D is shown as the average of at least duplicate trials with standard deviations.

[2] = test system: interfacial region of the plasma membrane of BSF T. b. brucei; test: TMA-DPH fluorescence anisotropy (interfacial membrane rigidity); assay type: cell-based, Trypanosoma brucei brucei; details: live BSF cells 3×10^6 cells/mL in PBS, 0.5 µM TMA-DPH, 37°C, increasing SHP concentrations, triplicate (Fig. 2b)
Protocol: The plasma membrane rigidity of live T. b. brucei was determined by measuring the fluorescence depolarization of diphenyl-1,3,5- hexatriene p-toluenesulfonate (DPH) or 1-(4-trimethylammoniumphenyl)-6-diphenyl-1,3,5- hexatriene p-toluenesulfonate (TMA-DPH; Invitrogen T204). Cells were washed 3 times with and resuspended in phosphate buffered saline at a density of 3×10^6 cells/mL. The anisotropic probes were added to a final concentration of 0.5 µM and allowed to intercalate into the cell membrane for 1 h in the dark. Anisotropic values were acquired via the software function of a PerkinElmer Life Sciences LS55 spectrofluorometer. Samples were excited at 358 nm, and emission was read at 430 nm, with 10-nm excitation and emission slit widths. Temperature was maintained at 37°C by means of the PerkinElmer LS55 Biokinetics accessory. Data were corrected for light scattering with an unlabeled sample of cells, and anisotropy was calculated according to the equation r = (IVV - GIVH)/(IVV + 2GIVH), where r is the anisotropy value, IVV is the emission intensity acquired with the excitation- and emission-polarizing filters set vertically, G is the instrument correction factor, and IVH is the emission intensity acquired with the excitation-polarizing filter set vertically and the emission-polarizing filter set horizontally. […]

[3] = test system: Bloodstream developmental forms of T. vivax; test: 2 h in vitro killing assay, T. vivax; assay type: cell-based, Trypanosoma vivax strain ILRAD V34; details: 37°C, 1×10^7 cells/mL, HMI 9 with 20 % bovine serum, hemocytometer, at concentrations similar to BSF T. brucei (Fig. 1b)
Protocol: as §1

BSF T. b. brucei = details: veterinary and human pathogenic BSF T. brucei; cited from earlier work
Source text: Specificity of SHP is mediated by a high degree of fluidity in the plasma membrane of BSF cells. […] Human cells, including erythrocytes, are refractory to SHP concentrations orders of magnitude higher than necessary to kill BSF T. brucei.

SDLGAVISLLLWGRQLFA [SHP-1, trypanocidal small hydrophobic peptide derived from an apolipoprotein, with characteristics of a secretory signal peptide]
susceptibility of BSF T. congolense to killing [1]: susceptible to killing | constriction of motility following hyperactivation (Live BSF T. b. brucei): subsequent constriction | hyperactivation of motility (Live BSF T. b. brucei): hyperactivation | interfacial rigidity of the plasma membrane (TMA-DPH fluorescence depolarization) [2]: increased the interfacial rigidity | susceptibility of BSF T. vivax to killing [3]: susceptible to killing | susceptibility of BSF T. brucei to killing (BSF T. b. brucei): uniquely susceptible to killing
